According to PubChem BioAssay AID720588 (Broad Institute, 2013):
Activity calls are given as the source filed them.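 The calls were made as follows: active = fitted curve falls past a set limit of signal loss at no more than twice the top dose; inconclusive = flat fit between 30 and 70% signal loss, or poor fit; inactive = signal rise, flat within 30%, or crossing too high.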

Test: ATP-based viability loss in HEK293T cells – cell-based, CellTiter-Glo luminescence, cherry-pick, set 3, cytotoxicity control, dose response (AID 720588)
Conditions: HEK293T viability, CellTiter-Glo ATP luminescence, 72 h

In the case of `O=C(Nc1cccc(S(=O)(=O)N2CCCC2)c1)c1ccc(Cl)nc1`, the activity change, negative = cytotoxicity (at 26 µM (top of the series)) is reported as -35.5% (inactive).

In the case of `Nc1ccc2c(c1)OC1(CCCC1)O2`, the activity change, negative = cytotoxicity (at 26 µM (top of the series)) is reported as -16.1% (inactive).

For `C[C@H]1CN([C@@H](C)CO)C(=O)Cc2cc(NC(=O)CCCCCC(=O)Nc3ccccc3N)ccc2O[C@H]1CN(C)Cc1ccc(Cl)c(Cl)c1`, the activity change, negative = cytotoxicity (at 23.5 µM (top of the series)) was -33.8% (inactive).

For `CN(C)c1ccc(/C=N/Nc2nc3ccccc3o2)cc1`, the activity change, negative = cytotoxicity (at 26 µM (top of the series)) was -21.5% (inactive).

In the case of `O=c1oc2cc(O)ccc2s1`, the activity change, negative = cytotoxicity (at 26 µM (top of the series)) is reported as -7.52% (inactive).

For `COc1ccc(/C=C2\SC(=O)N(CCCC(=O)Nc3ccc(C(=O)O)cc3)C2=O)cc1`, the activity change, negative = cytotoxicity (at 26 µM (top of the series)) was -14.1% (inactive).

With `O=C(CCCN1C(=O)/C(=C/c2ccccc2Cl)SC1=S)NNC(=O)c1ccc(Cl)cc1` the activity change, negative = cytotoxicity (at 26 µM (top of the series)) was 24.3% (inactive).

In the case of `C[C@@H]1CN([C@@H](C)CO)C(=O)Cc2cc(NC(=O)C3CCCCC3)ccc2O[C@H]1CN(C)Cc1ccc(C(=O)Nc2ccccc2N)cc1`, the activity change, negative = cytotoxicity (at 26 µM (top of the series)) is reported as 7.97% (inactive).

For `O=C(COC(=O)c1ccc[nH]c1=O)Nc1ccc(N2CCCCC2)cc1`, the activity change, negative = cytotoxicity (at 26 µM (top of the series)) was -10.3% (inactive).

For `COc1ccc(-c2nc3c(s2)CCc2onc(-c4ccc(OC)cc4)c2-3)cc1`, the activity change, negative = cytotoxicity (at 26 µM (top of the series)) was -17.8% (inactive).

With `O=C(CCCCl)Nc1nc(-c2ccc3c(c2)OCCO3)cs1` the activity change, negative = cytotoxicity (at 26 µM (top of the series)) was 13.6% (inactive).

With `CN(C)[C@@H]1CCC[C@@H]1OC(=O)C(c1ccccc1)c1ccccc1` the activity change, negative = cytotoxicity (at 26 µM (top of the series)) was -11.6% (inactive).

In the case of `COc1ccc(Cl)cc1S(=O)(=O)Nc1ccc2c(c1)n(C)c(=O)n2C`, the activity change, negative = cytotoxicity (at 26 µM (top of the series)) is reported as -13.3% (inactive).

In the case of `CCCn1nnc(NC(=S)NC(=O)C(C)(C)C)n1`, the activity change, negative = cytotoxicity (at 26 µM (top of the series)) is reported as -9.98% (inactive).

For `COc1ccccc1NS(=O)(=O)c1cc(NC(=O)c2cc3ccccc3oc2=O)ccc1C`, the activity change, negative = cytotoxicity (at 26 µM (top of the series)) was -6.46% (inactive).

In the case of `C[C@@H]1CN([C@H](C)CO)C(=O)c2cc(C#CCc3ccccc3)cnc2O[C@@H]1CN(C)Cc1cccc(F)c1`, the activity change, negative = cytotoxicity (at 26 µM (top of the series)) is reported as -3.37% (inactive).

With `COc1ccc(C(CCNCc2ccc(OC(C)C)cc2)C(C)C)cc1` (stereo not given) the activity change, negative = cytotoxicity (at 26 µM (top of the series)) was -12.5% (inactive).

In the case of `COc1ccccc1N(/N=C1\Sc2ccccc2C1=O)C(C)=O`, the activity change, negative = cytotoxicity (at 26 µM (top of the series)) is reported as -23.6% (inactive).

For `Cc1ccc(C(CC(=O)O)Nc2nc(N3CCOCC3)nc(N3CCOCC3)n2)cc1` (stereo not given), the activity change, negative = cytotoxicity (at 26 µM (top of the series)) was 25.6% (inactive).

With `COc1ccc(C/C(N)=N/OC(C)=O)cc1OC` the activity change, negative = cytotoxicity (at 26 µM (top of the series)) was -1.12% (inactive).

For `CC(=O)c1ccc(N=C2C(=O)Nc3ccccc32)cc1`, the activity change, negative = cytotoxicity (at 26 µM (top of the series)) was -11.5% (inactive).

In the case of `COc1cc2c(cc1NC(=O)CN(C)Cc1ccc(OC)c(OC)c1)oc1ccccc12`, the activity change, negative = cytotoxicity (at 26 µM (top of the series)) is reported as -19.9% (inactive).

In the case of `COC(=O)C[C@@H]1CC[C@H]2[C@H](COc3ccc(NC(=O)Nc4ccc(C#N)cc4)cc3C(=O)N2C)O1`, the activity change, negative = cytotoxicity (at 23.5 µM (top of the series)) is reported as 17.6% (inactive).

For `COc1ccc(/C=C2/NC(=O)N(CC(=O)Nc3cccc(C)c3)C2=O)cc1O`, the activity change, negative = cytotoxicity (at 26 µM (top of the series)) was -15.3% (inactive).

With `C[C@@H]1CN([C@@H](C)CO)C(=O)Cc2cc(N(C)C)ccc2O[C@@H]1CN(C)Cc1ccccc1` the activity change, negative = cytotoxicity (at 26 µM (top of the series)) was -17.5% (inactive).

For `O=c1c2ccccc2oc2cc(C#CC3(O)CCCCC3)ccc12`, the activity change, negative = cytotoxicity (at 26 µM (top of the series)) was 15.7% (inactive).

In the case of `COC(=O)C[C@H]1C=C[C@@H](NC(=O)Nc2ccc(C(F)(F)F)cc2)[C@H](CO)O1`, the activity change, negative = cytotoxicity (at 26 µM (top of the series)) is reported as 4.22% (inactive).

In the case of `COc1cc(OC)cc(-c2cc3nc(C)c(CCC(=O)NCc4ccccc4)c(C)n3n2)c1`, the activity change, negative = cytotoxicity (at 26 µM (top of the series)) is reported as -4.7% (inactive).

With `N#C[C@H]1[C@H](c2ccc(-c3ccccc3F)cc2)[C@@H](CO)N1C(=O)Cc1ccccc1` the activity change, negative = cytotoxicity (at 26 µM (top of the series)) was -28.3% (inactive).

In the case of `CCCc1nc2ccc(NC(=O)c3cccs3)cc2c(=O)n1Cc1ccccc1Cl`, the activity change, negative = cytotoxicity (at 26 µM (top of the series)) is reported as -2.41% (inactive).

In the case of `CCCN1C(=O)/C(=C/c2nc3ccccc3c(=O)[nH]2)c2ccccc21`, the activity change, negative = cytotoxicity (at 26 µM (top of the series)) is reported as -9.06% (inactive).

For `CC1(CCc2ccccc2)NC(=O)N(CC(=O)N2CC(=O)Nc3ccccc32)C1=O` (stereo not given), the activity change, negative = cytotoxicity (at 26 µM (top of the series)) was -7.05% (inactive).

With `O=c1c2ccccc2oc2ccc(C#CC3(O)CCCCC3)cc12` the activity change, negative = cytotoxicity (at 26 µM (top of the series)) was -6.65% (inactive).

In the case of `Cc1nn(-c2ccc(F)cc2)c2nc(N)c(C#N)c(-c3ccc(O)c(O)c3)c12`, the activity change, negative = cytotoxicity (at 26 µM (top of the series)) is reported as -12.7% (inactive).

In the case of `COc1ccc(C2=NNC(=Nc3cc(S(=O)(=O)N(C)C)ccc3C)SC2)c(OC)c1`, the activity change, negative = cytotoxicity (at 26 µM (top of the series)) is reported as -17.5% (inactive).

In the case of `CCOc1ccc(N=C2C(=O)Nc3ccc(C)c(Br)c32)cc1`, the activity change, negative = cytotoxicity (at 26 µM (top of the series)) is reported as -10.6% (inactive).

For `C[C@H](CO)N1C[C@H](C)[C@H](CN(C)CC2CCCCC2)Oc2ccc(NC(=O)CCCCCC(=O)Nc3ccccc3N)cc2CC1=O`, the activity change, negative = cytotoxicity (at 21 µM (top of the series)) was 5.04% (inactive).

With `CN(C)c1ccc2c(c1)[C@@H]1C[C@@H](CC(=O)NCc3ccc(Oc4ccccc4)cc3)O[C@H](CO)[C@@H]1O2` the activity change, negative = cytotoxicity (at 26 µM (top of the series)) was -15.8% (inactive).

In the case of `COc1ccc(NS(=O)(=O)c2cc(NC(=O)CNC(=O)c3cccc(OC)c3)ccc2C)cc1`, the activity change, negative = cytotoxicity (at 26 µM (top of the series)) is reported as -20.6% (inactive).

For `C[C@H]1CN([C@@H](C)CO)C(=O)Cc2cc(NC(=O)CCC(F)(F)F)ccc2O[C@H]1CN(C)Cc1ccc(C(=O)Nc2ccccc2N)cc1`, the activity change, negative = cytotoxicity (at 21 µM (top of the series)) was -31.3% (inactive).

With `CCOc1ccc(OCc2ccc(C(=O)NN=Cc3ccc[nH]3)cc2)cc1` the activity change, negative = cytotoxicity (at 26 µM (top of the series)) was -39.9% (inactive).

With `O=c1[nH]c(/C=C2\C=Nc3ccccc32)c(O)n1Cc1ccccc1F` the activity change, negative = cytotoxicity (at 26 µM (top of the series)) was -17.6% (inactive).

For `O=C(NC(c1ccc(F)cc1)c1ccc2ccccc2n1)C1CCN(Cc2cccc(C(F)(F)F)c2)CC1` (stereo not given), the activity change, negative = cytotoxicity (at 26 µM (top of the series)) was -38.4% (inactive).

In the case of `C[C@@H]1CN([C@H](C)CO)S(=O)(=O)c2ccc(C#CC3CC3)cc2O[C@@H]1CN(C)Cc1ccccc1F`, the activity change, negative = cytotoxicity (at 26 µM (top of the series)) is reported as -30.1% (inactive).

In the case of `N#Cc1cccc(-c2ccc(C3[C@@H]4CN(C(=O)Cc5ccncc5)C[C@H]3N4)cc2)c1` (stereo not given in full), the activity change, negative = cytotoxicity (at 26 µM (top of the series)) is reported as 35.3% (inactive).

In the case of `O=C1c2ccccc2C(=O)N1CCCCNc1ccccc1`, the activity change, negative = cytotoxicity (at 26 µM (top of the series)) is reported as 4.32% (inactive).

With `O=C(CNC(=O)Cc1ccccc1)N=Nc1c(O)n(Cc2ccc3c(c2)OCO3)c2ccccc12` the activity change, negative = cytotoxicity (at 26 µM (top of the series)) was -23.2% (inactive).

With `COc1ccc(/C=C2/SC(=S)N(CCCC(=O)Nc3ccccc3C(=O)O)C2=O)cc1` the activity change, negative = cytotoxicity (at 26 µM (top of the series)) was -21% (inactive).

With `Cc1c(CCOC(=O)CC23CC4CC(CC(C)(C4)C2)C3)sc[n+]1CC(=O)c1ccccc1` the activity change, negative = cytotoxicity (at 26 µM (top of the series)) was 12.1% (inactive).

In the case of `COc1ccc2oc(C(=O)NCCc3ccccc3)c(C)c2c1`, the activity change, negative = cytotoxicity (at 26 µM (top of the series)) is reported as -22.1% (inactive).

For `COc1cc(-c2coc3c(C(=O)NCc4ccc(C(F)(F)F)cc4)cccc23)ccc1O`, the activity change, negative = cytotoxicity (at 26 µM (top of the series)) was -23% (inactive).

In the case of `Nc1ncn([C@@H]2O[C@H](CO)[C@@H](O)[C@H]2O)c(=O)n1`, the activity change, negative = cytotoxicity (at 26 µM (top of the series)) is reported as 4.13% (inactive).

With `C[C@H]1CN([C@@H](C)CO)C(=O)Cc2cc(NC(=O)CCCCCC(=O)Nc3ccccc3N)ccc2O[C@H]1CN(C)Cc1ccc(C(F)(F)F)cc1` the activity change, negative = cytotoxicity (at 26 µM (top of the series)) was -19% (inactive).

With `C[C@@H]1CN([C@H](C)CO)C(=O)c2cc(NC(=O)CCCCCC(=O)Nc3ccccc3N)ccc2O[C@@H]1CN(C)Cc1ccc(Cl)c(Cl)c1` the activity change, negative = cytotoxicity (at 26 µM (top of the series)) was -5.39% (inactive).

For `CCCCOc1ccc(NC(=O)C(=O)NCCCn2ccnc2)cc1`, the activity change, negative = cytotoxicity (at 26 µM (top of the series)) was -3.53% (inactive).
